Test [1] concerns J774.A1. In words: Antiproliferative activity against mouse J774A.1 cells assessed as reduction in cell proliferation at 500 uM after 72 hrs by crystal violet staining based assay. Type of test: functional.
Test [2] deals with RAW264.7. In words: Antiproliferative activity against mouse RAW264.7 cells assessed as change in cell proliferation at 100 uM after 72 hrs by crystal violet staining based assay relative to control. Type of test: functional.
Test [3] addresses T1, Farnesyl pyrophosphate synthase (Homo sapiens) (UniProt P14324).
T1 sequence (whole entry): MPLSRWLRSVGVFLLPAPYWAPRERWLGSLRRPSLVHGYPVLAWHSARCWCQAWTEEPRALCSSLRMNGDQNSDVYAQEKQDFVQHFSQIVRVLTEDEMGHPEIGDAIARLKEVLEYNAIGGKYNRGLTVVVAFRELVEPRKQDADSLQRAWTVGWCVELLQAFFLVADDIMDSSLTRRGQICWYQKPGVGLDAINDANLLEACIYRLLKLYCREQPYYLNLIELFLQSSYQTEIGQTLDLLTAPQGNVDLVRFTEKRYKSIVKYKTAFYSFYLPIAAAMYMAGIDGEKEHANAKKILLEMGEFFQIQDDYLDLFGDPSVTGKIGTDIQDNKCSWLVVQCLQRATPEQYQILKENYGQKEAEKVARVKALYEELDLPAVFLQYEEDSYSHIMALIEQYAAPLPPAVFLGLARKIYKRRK
In words: Inhibition of recombinant human C-terminal His6-tagged FPPS expressed in Escherichia coli BL21 at 1 to 10 uM using DMAPP and IPP as substrates pretreated for 15 mins followed by substrates addition and measured after 1 hr by colorimetric method relative to control.

The target of test [4] is T2, Geranylgeranyl pyrophosphate synthase (Homo sapiens) (UniProt O95749).
T2 sequence (whole entry): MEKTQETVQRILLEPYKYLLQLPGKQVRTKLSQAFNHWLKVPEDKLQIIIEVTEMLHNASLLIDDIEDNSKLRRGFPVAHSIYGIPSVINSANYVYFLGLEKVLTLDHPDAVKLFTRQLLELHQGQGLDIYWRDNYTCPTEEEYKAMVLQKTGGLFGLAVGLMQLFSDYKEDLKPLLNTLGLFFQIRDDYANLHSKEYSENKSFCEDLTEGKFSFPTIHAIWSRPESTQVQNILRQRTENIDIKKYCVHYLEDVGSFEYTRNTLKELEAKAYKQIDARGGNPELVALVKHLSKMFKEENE
In words: Inhibition of recombinant human C-terminal His6-tagged GGPPS expressed in Escherichia coli BL21 at 1 to 10 uM using IPP and FPP as substrates pretreated for 15 mins followed by substrates addition and measured after 1 hr by colorimetric method relative to control.

Test [5] deals with T1, Farnesyl pyrophosphate synthase (Homo sapiens). In words: Inhibition of recombinant human C-terminal His6-tagged FPPS expressed in Escherichia coli BL21 at 100 uM using DMAPP and IPP as substrates pretreated for 15 mins followed by substrates addition and measured after 1 hr by colorimetric method relative to control.
Test [6] concerns J774.A1. Put plainly: Antiproliferative activity against mouse J774A.1 cells assessed as change in cell proliferation at 100 uM after 72 hrs by crystal violet staining based assay relative to control. Type of test: functional.
Test [7] concerns PC-3. In words: Antiproliferative activity against human PC3 cells assessed as change in cell proliferation at 100 uM after 72 hrs by crystal violet staining based assay relative to control. In kind it is functional.
Test [8] concerns MG-63. Put plainly: Antiproliferative activity against human MG63 cells assessed as change in cell proliferation at 100 uM after 72 hrs by crystal violet staining based assay relative to control. Type of test: functional.
Test [9] has as its system MG-63. In words: Antiproliferative activity against human MG63 cells assessed as reduction in cell proliferation at 500 uM after 72 hrs by crystal violet staining based assay. In kind it is functional.
Test [10] deals with RAW264.7. In words: Antiproliferative activity against mouse RAW264.7 cells assessed as reduction in cell proliferation at 500 uM after 72 hrs by crystal violet staining based assay. In kind it is functional.
In test [11] the test system is PC-3. In words: Antiproliferative activity against human PC3 cells assessed as reduction in cell proliferation at 500 uM after 72 hrs by crystal violet staining based assay. Type of test: functional.

What is called inhibition is how much of the control response was suppressed.

The source made the active and inactive calls. The calls are words filed in the database; no cut-off is given here.

For `O=P(O)(O)C(O)(CNc1ncc2ccccc2n1)P(=O)(O)O`, the outcome in [1], in test [9], in test [10] and in test [11] was inactive. Further, the Activity in test [2] is on record as -25.015%; in test [6], -11.108%; in test [7], -23.934%; in test [8], -15.998%. In addition, the results for the inhibition in test [3], in [4] and in [5] were 68 to 79%, 68 to 79% and 39.9%, respectively.
As to `O=P(O)(O)C(O)(CCCNc1ncnc2ccccc12)P(=O)(O)O`, the outcome in test [1], in [9], in [10] and in test [11] was inactive. The Activity is given as -16.077% in test [2], -10.813% in test [6], -27.057% in test [7] and 21.28% in test [8]. Also, the results for the inhibition in test [3], in test [4] and in [5] were 68 to 79%, 68 to 79% and 25%, respectively.
In the case of `O=P(O)(O)C(O)(CCNc1nc(-c2ccccc2)nc2ccccc12)P(=O)(O)O`, the result in [1], in test [9], in test [10] and in [11] was inactive. Also, the Activity in test [2] is on record as -30.319%; in [6], -37.121%; in test [7], -21.523%; in test [8], -5.102%. The values for the inhibition in test [3], in test [4] and in [5] were 68 to 79%, 68 to 79% and 25%, respectively.
Take `O=P(O)(O)C(O)(CCCNc1ncccn1)P(=O)(O)O`: the result in test [1], in [9], in test [10] and in test [11] was inactive. The Activity in [2] is -44.249%; in test [6] it was -37.544%; in test [7], -45.479%; in test [8] it was -3.759%. Besides, the inhibition was 68 to 79% in [3], 68 to 79% in [4] and 43% in [5].
For `O=P(O)(O)C(O)(CCNc1ncccn1)P(=O)(O)O`, the outcome in test [1], in test [9], in test [10] and in test [11] was inactive. For the same molecule, the Activity is -18.897% in test [2], -3.329% in test [6], -49.419% in test [7] and -18.291% in test [8]. In addition, the figures for the inhibition in test [3], in [4] and in test [5] were 68 to 79%, 68 to 79% and 54%, respectively.
Consider `O=P(O)(O)C(O)(CCCCc1ncc2ccccc2n1)P(=O)(O)O`, for which the outcome in test [1], in test [9], in [10] and in [11] was inactive. Also, the Activity in [2] is reported as -50.127%; in test [6], -47.396%; in test [7], -16.093%; in [8], -2.74%. Also, the inhibition in test [3] was 68 to 79%; in [4], 68 to 79%; in test [5], 48%.
`CC(Nc1ncnc2ccccc12)C(O)(P(=O)(O)O)P(=O)(O)O` (racemic): the outcome in test [1], in test [9], in [10] and in test [11] was inactive. Also, the Activity is reported as -11.295% in [2], -5.898% in test [6], -15.839% in test [7] and -4.026% in test [8]. Moreover, the inhibition in test [3] was 68 to 79%; in test [4] it was 68 to 79%; in test [5], 56%.
With `O=P(O)(O)C(O)(CCNc1ncnc2ccccc12)P(=O)(O)O`, the outcome in test [1], in test [9], in test [10] and in test [11] was inactive. Moreover, the Activity in [2] was -16.95%; in test [6], 6.688%; in [7] it was -1.552%; in test [8] it was 13.185%. For the same molecule, the values for the inhibition in test [3], in test [4] and in test [5] were 68 to 79%, 68 to 79% and 56%, respectively.
On to `O=P(O)(O)C(O)(CCCCc1ncnc2ccccc12)P(=O)(O)O`, for which the result in test [1], in test [9], in test [10] and in [11] was inactive. Besides, the Activity in test [2] was -29.565%; in [6], -15.466%; in [7] it was -10.283%; in test [8], 24.024%. Further, the inhibition is 68 to 79% in [3], 68 to 79% in [4] and 29% in [5].
Consider `O=P(O)(O)C(O)(CNc1nc2ccccc2s1)P(=O)(O)O`, for which the inhibition in [3] and in test [4] was 68 to 79% in each case. The inhibition result in [5] is “inactive”. The result in [9] and in [11] was inactive.
As to `O=P(O)(O)C(O)(CSc1nc2ccccc2s1)P(=O)(O)O`, the figures for the inhibition in [3], in [4] and in test [5] were 68 to 79%, 68 to 79% and 26%, respectively. For the same molecule, the outcome in test [9] and in test [11] was inactive.
`O=P(O)(O)C(O)(CCCNc1ncc2ccccc2n1)P(=O)(O)O`: the result in [1], in test [9], in test [10] and in [11] was inactive. In addition, the Activity in [2] is -24.106%; in test [6] it was -58.954%; in test [7] it was -19.628%; in test [8] it was 5.921%. Moreover, the inhibition in test [3] was 68 to 79%; in [4], 68 to 79%; in test [5], 30%.
Take `O=P(O)(O)C(O)(CNc1nc(-c2ccccc2)nc2ccccc12)P(=O)(O)O`: the result in test [1], in test [9], in test [10] and in [11] was inactive. Moreover, the Activity is recorded as -51.774% in test [2], -55.522% in test [6], 0.156% in test [7] and -1.127% in [8]. In addition, the inhibition in [3] was 68 to 79%; in [4] it was 68 to 79%; in test [5], 21%.
With `O=P(O)(O)C(O)(CSc1nc2ccccc2[nH]1)P(=O)(O)O`, the inhibition in [3] is 68 to 79%; in test [4], 68 to 79%; in test [5], 24%. Moreover, the result in [9] and in [11] was inactive.
For `O=P(O)(O)C(O)(CCCCc1ncccn1)P(=O)(O)O`, the result in [1], in test [9], in test [10] and in test [11] was inactive. Besides, the Activity in [2] is given as -35.941%; in test [6], -24.754%; in test [7], -14.446%; in [8], -0.023%. Moreover, the inhibition in [3] was 68 to 79%; in [4], 68 to 79%; in test [5], 51%.

Source of the values: ChEMBL document CHEMBL4265921, “Novel bisphosphonates with antiresorptive effect in bone mineralization and osteoclastogenesis” (Eur J Med Chem, 2018).
